Marks after values point to notes of the source that are not given here.
Experiments:
[1] = test system: NF-κB transcriptional activity; assay: NF-κB luciferase reporter assay in HeLa cells; format: cell-based; conditions: for IC50: Homo sapiens, NF-κB luciferase reporter, 24 h treatment, hypoxic conditions, mean, n = 3
Procedure: A NF-κB-Luc plasmid for NF-κB luciferase reporter assay was obtained from Strategene (La Jolla, CA, USA). Transfections were performed as previously described. NF-κB-dependent luciferase activity was measured using the Dual-luciferase reporter assay system. Briefly, HeLa cells (1 × 10^5 cells/well) were seeded in a 96-well plate for 24 h. The cells were then transfected with plasmids for each well and then incubated for a transfection period of 24 h. […] Luciferase activity was determined in MicroLumat plus luminometer (EG&G Berthold, Bad Wildbad, Germany) by injecting 100 µL of assay buffer containing luciferin and measuring light emission for 10 s. Co-transfection with pRL-CMV (Promega, Madison, WI, USA), which expresses Renilla luciferase, was performed to enable normalization of data for transfection efficiency.

[2] = MTT cytotoxicity / cell viability assay; format: cell-based; conditions: human; MTT assay, HeLa cells, 24 h treatment, normoxic conditions; mean, n = 3
Procedure: (§1) HeLa cells were inoculated and cultured in 96-well plates. After the cells adhered to the wall, the prepared target compounds with different concentrations were added to all plates for 24 h and then cultured in 5 mg/mL MTT solution for 4 h. The culture solution in the holes was sucked out, and DMSO reagent was added. After the crystallization was fully dissolved, the absorbance at 570 nm was measured by Multiskan GO.

[3] = test system: HeLa cells; assay: MTT cytotoxicity / cell viability assay; format: cell-based; conditions: for IC50 Cytotoxicity: MTT assay, 24 h treatment, normoxic conditions, mean, n = 3
Procedure: as §1

[4] = test system: xylene-induced ear edema; assay: Xylene-induced ear edema test, initial screening (i.p.); format: in vivo; conditions: mice; for inhibition in vivo at 100 mg/kg: Mus musculus, ip, 0.5 h, n = 6, read-out: Inhibition Rate; for Edema Mean ± SD: 100 mg/kg, n = 6
Procedure: In vivo inhibition test of xylene induced ear edema in mice was performed to evaluate its anti-inflammatory activity.
In the initial screening, mice (male) were randomly divided into experimental group, positive control drug ibuprofen and Mesalazine group, and blank group. All target compounds were dissolved in dimethyl sulfoxide, and corresponding drugs were intraperitoneally injected into experimental group, positive control group and blank group, respectively. Mice were treated with 100 mg/kg, 0.1 mL/20 g body weight, and control mice received only DMSO (0.1 mL/20 g body weight). After 30 min, 20 μL of xy-lene was evenly applied on both sides of the right ear of the mice. After 30 min of xy-lene was applied, the mice were sacrificed by cutting off their necks. Then the left and right ears of the mice were drilled with a hole punch with a diameter of 7 mm, respec-tively, to obtain two round ear pieces. The degree of swelling (right ear mass–left ear mass) was calculated for each sample, and the swelling inhibition rate of each drug was calculated using the following formula. The inhibition rate of swelling degree (%) = (mean ear swelling degree of mice in blank group […] mean ear swelling degree of mice in target compound group)/mean ear swelling degree of mice in blank group × 100%. The data were processed by GraphPadPrism 5 and expressed as mean data ± SEM. One-way ANOVA method was used for statistical analysis of relevant data. A value of p < 0.05 in the chart indicates significant and statistically significant data dif-ference.

[5] = test system: xylene-induced ear edema; assay: Xylene-induced ear edema test, deep screening (oral); format: in vivo; conditions: mice
Procedure: In the deep screening, mice were divided into target compound group, positive control group (ibuprofen), and blank group (8 male mice in each group). Target com-pound and ibuprofen were dissolved in sodium carboxymethyl cellulose aqueous solu-tion (sodium carboxymethyl cellulose to water, mass ratio 1:1000); the blank group was sodium carboxymethyl cellulose aqueous solution (sodium carboxymethyl cellu-lose to water, mass ratio 1:1000). The anti-inflammatory activities of each compound in the target compound group, positive control group, and blank group were measured at 1, 2, 3, 4, 6, 9, 12 and 24 h after taking the drug. The experimental operation and calculation method are the same as the initial screening part.

[6] = test system: p65; assay: Western blot of nuclear extracts, TNF-α-induced p65; format: cell-based

Row | IC50 [1] [µM] | melting point [°C] | Structure (SMILES) | IC50 at 24 h [2] [µM] | IC50 Cytotoxicity [3] | inhibition in vivo at 100 mg/kg [4] [%] | Edema Mean ± SD [4] [mg] | Inhibition ([5]; 100 mg/kg, time 1 h) [% ***] | Inhibition ([5]; 100 mg/kg, time 2 h) [% ***] | Inhibition ([5]; 100 mg/kg, time 3 h) [% ***] | Inhibition ([5]; 100 mg/kg, time 4 h) [% ***] | Inhibition ([5]; 100 mg/kg, time 9 h) [% ***] | Inhibition ([5]; 100 mg/kg, time 12 h) [% ***] | Inhibition ([5]; 100 mg/kg, time 24 h) [% ***] | Inhibition ([5]; dose series, 25 mg/kg, 6 h) [% **] | Inhibition ([5]; dose series, 50 mg/kg, 6 h) [% ***] | inhibition of NF-κB luciferase activity, dose dependence ([1]; Figure 2A) | cell viability ([3]; 30 µM, 24 h, Figure 2B) | TNF-α-induced expression of p65 ([6]; HeLa cells, 100 µM) | TNF-α-induced p65 phosphorylation ([6]; HeLa cells, 10, 30, 100 µM for 12 h, then 10 ng/mL TNF-α 30 min, nuclear extracts)
1 | 18.5 | 132 to 134 | COC(=O)c1c2c(c3ccccc3c1OCC(=O)Nc1ccc(F)cc1)OC(C)(C)C=C2 [Compound 4f, Methyl 6-(2-((4-fluorophenyl)amino)-2-oxoethoxy)-2,2-dimethyl-2H-benzo [h] chromene-5-carboxylate] | > 100 | no significant cell toxicity | 83.1 | 1.1167 ± 0.2544 | 27.53 | 37.12 | 46.46 | 58.08 | 43.94 | 35.35 | 26.01 | 46.46 | 53.08 |  |  |  | 
2 | 22.9 | 115 to 117 | COC(=O)c1c2c(c3ccccc3c1OCC(=O)Nc1ccc(CC#N)cc1)OC(C)(C)C=C2 [Compound 4i, Methyl 6-(2-((4-(cyanomethyl)phenyl)amino)-2-oxoethoxy)-2,2-dimethyl-2H-benzo [h] chromene-5-carboxylate] | > 100 | no significant cell toxicity | 59.1 | 2.7000 ± 0.4619 |  |  |  |  |  |  |  |  |  |  |  |  | 
3 | 55.1 | 120 to 122 | COC(=O)c1c2c(c3ccccc3c1OCC(=O)Nc1ccc(C)cc1)OC(C)(C)C=C2 [Compound 4e, Methyl 2,2-dimethyl-6-(2-oxo-2-(p-tolylamino)ethoxy)-2H-benzo [h] chromene-5-carboxylate] | > 100 | no significant cell toxicity | 41.4 | 3.8667 ± 1.2023 |  |  |  |  |  |  |  |  |  |  |  |  | 
4 | 88.2 | 126 to 128 | COC(=O)c1c2c(c3ccccc3c1OCC(=O)Nc1ccc(OC)cc1)OC(C)(C)C=C2 [Compound 4d, Methyl 6-(2-((4-methoxyphenyl)amino)-2-oxoethoxy)-2,2-dimethyl-2H-benzo [h] chromene-5-carboxylate] | > 100 | no significant cell toxicity | 61.9 | 2.5167 ± 0.6890 |  |  |  |  |  |  |  |  |  |  |  |  | 
5 | > 100 | 116 to 118 | COC(=O)c1c2c(c3ccccc3c1OCC(=O)Nc1ccc3ccccc3n1)OC(C)(C)C=C2 [Compound 6k, Methyl 2,2-dimethyl-6-(2-oxo-2-(quinolin-2-ylamino)ethoxy)-2H-benzo [h] chromene-5-carboxylate] | > 100 |  | 66.9 | 2.1833 ± 0.6414 |  |  |  |  |  |  |  |  |  |  |  |  | 
6 | > 100 | 122 to 124 | COC(=O)c1c2c(c3ccccc3c1OCC(=O)Nc1cccc(C)c1)OC(C)(C)C=C2 [Compound 4h, Methyl 2,2-dimethyl-6-(2-oxo-2-(m-tolylamino)ethoxy)-2H-benzo [h] chromene-5-carboxylate] | > 100 |  | 62.4 | 2.4833 ± 1.5464 |  |  |  |  |  |  |  |  |  |  |  |  | 
7 | 3.81 | 135 to 137 | COC(=O)c1c2c(c3ccccc3c1OCC(=O)Nc1ccc3ncccc3c1)OC(C)(C)C=C2 [Compound 6d, Methyl 2,2-dimethyl-6-(2-oxo-2-(quinolin-6-ylamino)ethoxy)-2H-benzo [h] Chromene-5-carboxylate] | > 100 | did not show any significant cytotoxicity | 76.8 |  | 25.76 | 33.84 | 41.92 | 52.53 | 37.63 | 31.82 | 25.25 | 41.92 | 46.32 | dose-dependent inhibition | did not adversely affect the cell viability | inhibited TNF-α-induced expression of p65 | significantly inhibited TNF-α-induced p65 phosphorylation in a dose-dependent manner
8 | 23.1 | 130 to 132 | COC(=O)c1c2c(c3ccccc3c1OCC(=O)NCc1ccc(Cl)cc1)OC(C)(C)C=C2 [Compound 6c, Methyl 6-(2-((4-chlorobenzyl)amino)-2-oxoethoxy)-2,2-dimethyl-2H-benzo [h] chromene-5-carboxylate] | > 100 |  | 73.2 | 1.7667 ± 0.3037 |  |  |  |  |  |  |  |  |  |  |  |  | 

— publication PMC9695821, “Synthesis and Evaluation of NF-κB Inhibitory Activity of Mollugin Derivatives” (Molecules, 2022)
